In patent US8501936B2 (priority 2009, dated 2013) one finds IC50 data, which are given here for 26 compounds.

For orientation: IC50 means the concentration that inhibits the measured activity by half.

Experiment [1] deals with human JAK2 (Homo sapiens (Human), UniProt O60674). Conditions: read-out: JAK2 IC50.
Experiment [2] concerns the target human FAK (Homo sapiens (Human), UniProt Q05397). To be noted: read-out: FAK IC50.

human JAK2, sequence (O60674 815-1132): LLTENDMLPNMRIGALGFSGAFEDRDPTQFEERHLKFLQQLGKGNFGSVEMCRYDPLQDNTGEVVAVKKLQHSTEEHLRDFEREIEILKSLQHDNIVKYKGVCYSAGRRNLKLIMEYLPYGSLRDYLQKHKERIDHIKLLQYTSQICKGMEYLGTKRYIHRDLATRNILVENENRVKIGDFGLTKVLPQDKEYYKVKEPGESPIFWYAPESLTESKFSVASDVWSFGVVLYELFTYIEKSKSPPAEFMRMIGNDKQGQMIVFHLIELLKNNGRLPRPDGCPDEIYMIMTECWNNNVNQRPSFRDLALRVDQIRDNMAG
human FAK, sequence (Q05397 whole entry): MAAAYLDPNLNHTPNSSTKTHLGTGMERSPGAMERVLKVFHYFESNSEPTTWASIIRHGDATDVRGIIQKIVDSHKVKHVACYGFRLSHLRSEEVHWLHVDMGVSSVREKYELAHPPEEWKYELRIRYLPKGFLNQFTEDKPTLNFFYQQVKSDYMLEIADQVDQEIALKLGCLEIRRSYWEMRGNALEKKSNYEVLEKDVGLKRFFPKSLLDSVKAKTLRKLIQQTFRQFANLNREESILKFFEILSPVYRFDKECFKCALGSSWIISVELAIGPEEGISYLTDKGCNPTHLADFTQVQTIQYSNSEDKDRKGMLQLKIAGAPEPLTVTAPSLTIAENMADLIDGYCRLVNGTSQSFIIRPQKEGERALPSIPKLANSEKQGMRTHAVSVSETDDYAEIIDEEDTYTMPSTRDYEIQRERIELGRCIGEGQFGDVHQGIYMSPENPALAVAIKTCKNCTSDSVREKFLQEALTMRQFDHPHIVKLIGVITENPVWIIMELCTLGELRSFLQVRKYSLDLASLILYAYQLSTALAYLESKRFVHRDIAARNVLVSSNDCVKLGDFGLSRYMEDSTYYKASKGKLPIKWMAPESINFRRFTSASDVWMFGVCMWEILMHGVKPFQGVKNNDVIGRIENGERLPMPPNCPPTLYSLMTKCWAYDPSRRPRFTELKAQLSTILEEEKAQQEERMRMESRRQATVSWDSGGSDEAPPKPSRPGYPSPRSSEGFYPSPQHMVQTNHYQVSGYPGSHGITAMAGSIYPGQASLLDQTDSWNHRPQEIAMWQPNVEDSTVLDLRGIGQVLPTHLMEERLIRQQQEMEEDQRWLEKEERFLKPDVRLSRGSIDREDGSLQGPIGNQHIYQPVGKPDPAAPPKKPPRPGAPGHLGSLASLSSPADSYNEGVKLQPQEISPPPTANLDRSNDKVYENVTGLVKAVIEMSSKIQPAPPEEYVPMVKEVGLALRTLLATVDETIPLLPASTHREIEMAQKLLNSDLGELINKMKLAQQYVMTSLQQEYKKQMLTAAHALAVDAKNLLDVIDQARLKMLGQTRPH

As to `CN1CCN(c2ccc(Nc3nc4c(NCc5ccccc5N(C)S(C)(=O)=O)cccn4n3)cc2)CC1` [Example 147, N-Methyl-N-[2-({2-[4-(4-methyl-piperazin-1-yl)-phenylamino]-[1,2,4]triazolo[1,5-a]pyridin-8-ylamino}-methyl)-phenyl]-methanesulfonamide], the IC50 in experiment [1] is 0.0291 µM; in experiment [2], 0.0114 µM.

For `CN1CCC(c2ccc(Nc3nc4c(NCc5ccccc5N(C)S(C)(=O)=O)cccn4n3)cc2)CC1` [Example 149, N-Methyl-N-[2-({2-[4-(1-methyl-piperidin-4-yl)-phenylamino]-[1,2,4]triazolo[1,5-a]pyridin-8-ylamino}-methyl)-phenyl]-methanesulfonamide], the IC50 in experiment [1] stood at 0.0385 µM; in experiment [2], 0.0136 µM.

Consider `CN(c1ccccc1CNc1cccn2nc(Nc3ccc(OCCN4CCCC4)cc3)nc12)S(C)(=O)=O` [Example 150, N-Methyl-N-[2-({2-[4-(2-pyrrolidin-1-yl-ethoxy)-phenylamino]-[1,2,4]triazolo[1,5-a]pyridin-8-ylamino}-methyl)-phenyl]-methanesulfonamide], for which the figures for the half-maximal inhibitory concentration (IC50) in experiment [1] and in experiment [2] were 0.0437 µM and 0.013 µM, respectively.

Consider `CN1CCN(c2ccc(Nc3nc4c(NCc5cccnc5)cccn4n3)cc2)CC1` [Example 151, N(2)-[4-(4-Methyl-piperazin-1-yl)-phenyl]-N(8)-pyridin-3-ylmethyl-[1,2,4]triazolo[1,5-a]pyridine-2,8-diamine], for which the results for the IC50 in experiment [1] and in experiment [2] were 0.488 µM and 6.5 µM, respectively.

As to `CS(=O)(=O)c1ccc(-c2cccn3nc(Nc4cccc(N5CCN(CCO)CC5)c4)nc23)cc1` [Example 152, 2-(4-{3-[8-(4-Methanesulfonyl-phenyl)-[1,2,4]triazolo[1,5-a]pyridin-2-ylamino]-phenyl}-piperazin-1-yl)-ethanol], the IC50 in experiment [1] was found to be 0.00237 µM; in experiment [2], 0.999 µM.

Turning to `CN1CCN(c2cccc(Nc3nc4c(NCc5cccnc5)cccn4n3)c2)CC1` [Example 153, N(2)-[3-(4-Methyl-piperazin-1-yl)-phenyl]-N(8)-pyridin-3-ylmethyl-[1,2,4]triazolo[1,5-a]pyridine-2,8-diamine], the IC50 in experiment [1] came to 0.647 µM; in experiment [2], 6.5 µM.

With `c1cncc(CNc2cccn3nc(Nc4ccc(OCCN5CCCC5)cc4)nc23)c1` [Example 154, N(8)-Pyridin-3-ylmethyl-N(2)-[4-(2-pyrrolidin-1-yl-ethoxy)-phenyl]-[1,2,4]triazolo[1,5-a]pyridine-2,8-diamine], the results for the IC50 in experiment [1] and in experiment [2] were 0.571 µM and 10 µM, respectively.

`CN(c1ncccc1CNc1cccn2nc(Nc3ccc(N4CCN(CCO)CC4)cc3)nc12)S(C)(=O)=O` [Example 155, N-{3-[(2-{4-[4-(2-Hydroxy-ethyl)-piperazin-1-yl]-phenylamino}-[1,2,4]triazolo[1,5-a]pyridin-8-ylamino)-methyl]-pyridin-2-yl}-N-methyl-methanesulfonamide]: the figures for the IC50 in experiment [1] and in experiment [2] were 0.036 µM and 0.379 µM, respectively.

Consider `CN1CCN(c2ccc(Nc3nc4c(NCc5ccccc5CN(C)S(C)(=O)=O)cccn4n3)cc2)CC1` [Example 156, N-Methyl-N-[2-({2-[4-(4-methyl-piperazin-1-yl)-phenylamino]-[1,2,4]triazolo[1,5-a]pyridin-8-ylamino}-methyl)-benzyl]-methanesulfonamide], for which the concentration for half-maximal inhibition (IC50) is 0.0354 µM in experiment [1] and 0.179 µM in experiment [2].

Consider `CN1CCN(c2cccc(Nc3nc4c(NCc5ccccc5CN(C)S(C)(=O)=O)cccn4n3)c2)CC1` [Example 157, N-Methyl-N-[2-({2-[3-(4-methyl-piperazin-1-yl)-phenylamino]-[1,2,4]triazolo[1,5-a]pyridin-8-ylamino}-methyl)-benzyl]-methanesulfonamide], for which the IC50 worked out at 0.22 µM in experiment [1] and 0.3 µM in experiment [2].

Take `CN(Cc1ccccc1CNc1cccn2nc(Nc3ccc(OCCN4CCCC4)cc3)nc12)S(C)(=O)=O` [Example 158, N-Methyl-N-[2-({2-[4-(2-pyrrolidin-1-yl-ethoxy)-phenylamino]-[1,2,4]triazolo[1,5-a]pyridin-8-ylamino}-methyl)-benzyl]-methanesulfonamide]: the IC50 in experiment [1] turned out to be 0.0975 µM; in experiment [2] it was 0.276 µM.

`CN1CCN(c2ccc(Nc3nc4c(NCc5cccc(S(C)(=O)=O)c5)cccn4n3)cc2)CC1` [Example 160, N(8)-(3-Methanesulfonyl-benzyl)-N(2)-[4-(4-methyl-piperazin-1-yl)-phenyl]-[1,2,4]triazolo[1,5-a]pyridine-2,8-diamine]: the values for the IC50 in experiment [1] and in experiment [2] were 0.262 µM and 10 µM, respectively.

Regarding `CN1CCN(c2cccc(Nc3nc4c(NCc5cccc(S(C)(=O)=O)c5)cccn4n3)c2)CC1` [Example 161, N(8)-(3-Methanesulfonyl-benzyl)-N(2)-[3-(4-methyl-piperazin-1-yl)-phenyl]-[1,2,4]triazolo[1,5-a]pyridine-2,8-diamine], the IC50 in experiment [1] was 0.399 µM; in experiment [2], 10 µM.

As for `CN1CCC(c2ccc(Nc3nc4c(NCc5cccc(S(C)(=O)=O)c5)cccn4n3)cc2)CC1` [Example 162, N(8)-(3-Methanesulfonyl-benzyl)-N(2)-[4-(1-methyl-piperidin-4-yl)-phenyl]-[1,2,4]triazolo[1,5-a]pyridine-2,8-diamine], the half-maximal inhibitory concentration (IC50) stood at 0.328 µM in experiment [1] and 10 µM in experiment [2].

For the compound `CN1CCN(c2ccc(Nc3nc4c(NCC5CCN(C(=O)OC(C)(C)C)C5)cccn4n3)cc2)CC1` (stereo not shown) [Example 163, 3-({2-[4-(4-Methyl-piperazin-1-yl)-phenylamino]-[1,2,4]triazolo[1,5-a]pyridin-8-ylamino}-methyl)-pyrrolidine-1-carboxylic acid tert-butyl ester], the IC50 worked out at 0.098 µM in experiment [1] and 10 µM in experiment [2].

Consider `CN1CCN(c2ccc(Nc3nc4c(Nc5ccccc5CS(C)(=O)=O)cccn4n3)cc2)CC1` [Example 164, N(8)-(2-Methanesulfonylmethyl-phenyl)-N(2)-[4-(4-methyl-piperazin-1-yl)-phenyl]-[1,2,4]triazolo[1,5-a]pyridine-2,8-diamine], for which the values for the 50% inhibitory concentration (IC50) in experiment [1] and in experiment [2] were 0.0221 µM and 1.28 µM, respectively.

Take `CN1CCC(c2ccc(Nc3nc4c(Nc5ccccc5CS(C)(=O)=O)cccn4n3)cc2)CC1` [Example 165, N(8)-(2-Methanesulfonylmethyl-phenyl)-N(2)-[4-(1-methyl-piperidin-4-yl)-phenyl]-[1,2,4]triazolo[1,5-a]pyridine-2,8-diamine]: the values for the 50% inhibitory concentration (IC50) in experiment [1] and in experiment [2] were 0.0399 µM and 2 µM, respectively.

In the case of `CN1Cc2ccc(Nc3nc4c(NCc5cccnc5N(C)S(C)(=O)=O)cccn4n3)cc2C1` [Example 166, N-Methyl-N-(3-{[2-(2-methyl-2,3-dihydro-1H-isoindol-5-ylamino)-[1,2,4]triazolo[1,5-a]pyridin-8-ylamino]-methyl}-pyridin-2-yl)-methanesulfonamide], the IC50 in experiment [1] was found to be 0.0128 µM; in experiment [2], 0.0481 µM.

For `CN1Cc2ccc(Nc3nc4c(NCc5ccccc5N(C)S(C)(=O)=O)cccn4n3)cc2C1` [Example 167, N-Methyl-N-(2-{[2-(2-methyl-2,3-dihydro-1H-isoindol-5-ylamino)-[1,2,4]triazolo[1,5-a]pyridin-8-ylamino]-methyl}-phenyl)-methanesulfonamide], the 50% inhibitory concentration (IC50) came to 0.00919 µM in experiment [1] and 0.0178 µM in experiment [2].

On to `CN1Cc2ccc(Nc3nc4c(-c5ccc(S(C)(=O)=O)cc5)cccn4n3)cc2C1` [Example 168, [8-(4-Methanesulfonyl-phenyl)-[1,2,4]triazolo[1,5-a]pyridin-2-yl]-(2-methyl-2,3-dihydro-1H-isoindol-5-yl)-amine], for which the IC50 in experiment [1] was determined as 0.00073 µM; in experiment [2] it was 0.816 µM.

In the case of `CN1CCN(c2ccc(Nc3nc4c(NCc5cccc(N(C)S(C)(=O)=O)c5)cccn4n3)cc2)CC1` [Example 169, N-Methyl-N-[3-({2-[4-(4-methyl-piperazin-1-yl)-phenylamino]-[1,2,4]triazolo[1,5-a]pyridin-8-ylamino}-methyl)-phenyl]-methanesulfonamide], the half-maximal inhibitory concentration (IC50) in experiment [1] worked out at 0.145 µM; in experiment [2] it was 6.5 µM.

With `CN1CCN(c2ccc(Nc3nc4c(Nc5ccccc5CN(C)S(C)(=O)=O)cccn4n3)cc2)CC1` [Example 171, N-Methyl-N-(2-{2-[4-(4-methyl-piperazin-1-yl)-phenylamino]-[1,2,4]triazolo[1,5-a]pyridin-8-ylamino}-benzyl)-methanesulfonamide], the figures for the IC50 in experiment [1] and in experiment [2] were 0.0708 µM and 0.999 µM, respectively.

On to `CN1CCN(c2cccc(Nc3nc4c(Nc5ccccc5CN(C)S(C)(=O)=O)cccn4n3)c2)CC1` [Example 172, N-Methyl-N-(2-{2-[3-(4-methyl-piperazin-1-yl)-phenylamino]-[1,2,4]triazolo[1,5-a]pyridin-8-ylamino}-benzyl)-methanesulfonamide], for which the concentration for half-maximal inhibition (IC50) in experiment [1] was found to be 0.453 µM; in experiment [2], 3 µM.

As for `CN(Cc1ccccc1Nc1cccn2nc(Nc3ccc(OCCN4CCCC4)cc3)nc12)S(C)(=O)=O` [Example 173, N-Methyl-N-(2-{2-[4-(2-pyrrolidin-1-yl-ethoxy)-phenylamino]-[1,2,4]triazolo[1,5-a]pyridin-8-ylamino}-benzyl)-methanesulfonamide], the half-inhibitory concentration (IC50) in experiment [1] came to 0.143 µM; in experiment [2] it was 2 µM.

Regarding `CN1CCC(c2ccc(Nc3nc4c(Nc5ccccc5CN(C)S(C)(=O)=O)cccn4n3)cc2)CC1` [Example 174, N-Methyl-N-(2-{2-[4-(1-methyl-piperidin-4-yl)-phenylamino]-[1,2,4]triazolo[1,5-a]pyridin-8-ylamino}-benzyl)-methanesulfonamide], the half-inhibitory concentration (IC50) in experiment [1] was 0.111 µM; in experiment [2], 10 µM.

Regarding `CN1CCN(c2ccc(Nc3nc4c(-c5cccc(CN(C)S(C)(=O)=O)c5)cccn4n3)cc2)CC1` [Example 175, N-Methyl-N-(3-{2-[4-(4-methyl-piperazin-1-yl)-phenylamino]-[1,2,4]triazolo[1,5-a]pyridin-8-yl}-benzyl)-methanesulfonamide], the IC50 in experiment [1] was 0.00795 µM; in experiment [2], 3 µM.
